{
  "source": "ChEMBL document CHEMBL3044667",
  "about": "“Insecticidal activities of crude extracts and phospholipids from Chenopodium ficifolium against melon and cotton aphid, Aphis gossypii” (2010)",
  "key": {"Aphis gossypii [1]": {"tested_on": "Aphis gossypii", "experiment": "Insecticidal activity against Aphis gossypii (cotton aphid) infested fourth-leaf stage cucumber seedlings followed by compound exposure at 1000 ug/ml assessed as induction of insect death on leaves after 48 hr post compound treatment relative to untreated control", "type": "functional, organism-based"}, "Aphis gossypii [2]": {"tested_on": "Aphis gossypii", "experiment": "Insecticidal activity against Aphis gossypii (cotton aphid) infested fourth-leaf stage cucumber seedlings followed by compound exposure assessed as insect control after 48 hr post compound treatment relative to untreated control", "type": "functional, organism-based"}},
  "note": "Calls of active or inactive are those of the source. No cut-off for these calls is given here.",
  "data": [
    {"smiles": "CCCCCCCCCCCCC=CCC(=O)OC(COC(=O)CCCCCCCCCCCCCCC)COP(=O)(O)OCC(O)CO", "note": "(configuration not stated)", "values": [
      {"measurement": "Activity", "setting": "Aphis gossypii [1]", "result": "Active"},
      {"measurement": "Activity", "setting": "Aphis gossypii [2]", "result": "Dose-dependent effect"}
    ]}
  ]
}
